In US7732451B2, “Naphthalene-containing melanocortin receptor-specific small molecule” (Palatin Technologies, Inc., priority 2002, dated 2010):

Experiments:
[1] = molecular target: T1, MC4-R (HEK-293 cells expressing MC4-R) (Homo sapiens, UniProt P32245); assay: cAMP assay for agonist/antagonist status; format: cell-based; details: antagonism = inhibition of α-MSH-induced cAMP
T1 construct: expressed in transfected cells; host or cells: HEK-293
Protocol: (§1) Functional evaluation of compounds at melanocortin receptors was performed by measuring the accumulation of intracellular cAMP in HEK-293 cells expressing MC3-R, MC4-R or MC5-R, and in B-16 mouse melanoma cells (containing MC1-R). Cells, suspended in Earle's Balanced Salt Solution containing 10 mM HEPES, pH 7.5, 5 mM MgCl2, 1 mM glutamine, 0.1% albumin and 0.6 mM 3-isobutyl-1-methyl-xanthine, a phosphodiesterase inhibitor, were plated in 96 well plates at a density of 0.5×10^5 cells per well. Cells were incubated with the test compounds in the presence or absence of α-MSH for 1 hour at 37° C. cAMP levels were measured by EIA (Amersham) in the cell lysates. Data analysis and EC50 values were determined using nonlinear regression analysis with Prism Graph-Pad software.
(§2) The agonist/antagonist status with respect to MC4-R of certain compounds of the invention was determined. Antagonistic activity was determined by measuring the inhibition of α-MSH-induced cAMP levels following exposure to the compounds as in Example 2.

[2] = molecular target: T2, MC1-R (B-16 mouse melanoma cells) (Mus musculus, UniProt Q01727); assay: cAMP assay for agonist/antagonist status; format: cell-based; details: antagonism = inhibition of α-MSH-induced cAMP
T2 construct: B-16 mouse melanoma cells (containing MC1-R); endogenous in cells; host or cells: B-16 mouse melanoma cells
Protocol: as §1, §2

[3] = molecular target: T3, MC5-R (HEK-293 cells expressing MC5-R) (Homo sapiens, UniProt P33032); assay: cAMP assay for agonist/antagonist status; format: cell-based; details: antagonism = inhibition of α-MSH-induced cAMP
T3 construct: expressed in transfected cells; host or cells: HEK-293
Protocol: as §1, §2

[4] = penile erection (PE) studies in male rats; format: in vivo, rat; details: IV, dose levels of 0.3, 3 and 30 μg/Kg
Protocol: The ability of compounds to induce penile erection (PE) in male rats was evaluated with selected compounds. Male Sprague-Dawley rats weighing 200-250 g were kept on a 12 hour on/off light cycle with food and water ad libitum. All behavioral studies were performed between 10 a.m. and 5 p.m. Groups of 4-8 rats were treated with compounds at a variety of doses via intravenous (IV) or intracerebroventricular (ICV) routes. Immediately after treatment, rats were placed into individual polystyrene cages (27 cm long, 16 cm wide, and 25 cm high) for behavioral observation. The iv and icv treated rats were observed respectively for 30 minutes and 120 min and the number of yawns, grooming bouts and PEs were recorded in 10-minute bins.

[5] = IV feeding studies, change in food intake and body weight; format: in vivo, rat; details: 3 μg/Kg, male Sprague-Dawley rats
Protocol: Change in food intake and body weight was evaluated for selected compounds. Male Sprague-Dawley rats weighing ˜300 g at the beginning of the experiment were kept on a 12 hour on/off light cycle. Lights out was adjusted to 12:00 p.m. to allow for dosing just prior to the start of their dark period. Rats (8-12/group) were fed powdered chow and water ad libitum. For 1 week before treatment, 24-hour food intake and body weight change was recorded to assess a baseline for the group during vehicle treatment. […] The changes in body weight and food intake for the 24 hour period after dosing were determined. The changes in body weight and food intake for the 48 hour period, and in same cases for 72 hours as well, after dosing were also measured to determined reversal of changes in body weight and food intake effect back to baseline.

[6] = ICV feeding studies, change in food intake and body weight; format: in vivo, rat; details: 1 nmol, male Sprague-Dawley rats
Protocol: Change in food intake and body weight was evaluated for selected compounds. Male Sprague-Dawley rats weighing ˜300 g at the beginning of the experiment were kept on a 12 hour on/off light cycle. Lights out was adjusted to 12:00 p.m. to allow for dosing just prior to the start of their dark period. Rats (8-12/group) were fed powdered chow and water ad libitum. For 1 week before treatment, 24-hour food intake and body weight change was recorded to assess a baseline for the group during vehicle treatment. The rats were dosed ICV with vehicle or selected compounds (1-3 nmol). The changes in body weight and food intake for the 24 hour period after dosing were determined. The changes in body weight and food intake for the 48 hour period, and in same cases for 72 hours as well, after dosing were also measured to determined reversal of changes in body weight and food intake effect back to baseline.

[7] = molecular target: T4, hMC3-R (Homo sapiens, UniProt P41968); assay: competitive inhibition binding assay, 125I-NDP-α-MSH, membranes
T4 construct: expressed in transfected cells
Protocol: (§3) A competitive inhibition binding assay was conducted using membranes prepared from hMC3-R, hMC4-R, hMC5-R, and B-16 mouse melanoma cells (containing MC1-R) using 0.4 nM ^125I-NDP-α-MSH (New England Nuclear, Boston, Mass., USA) in 50 mM HEPES buffer containing 1 mM MgCl2, 2 mM CaCl2, and 5 mM KCl, at pH 7.2. The assay tube also contained a chosen concentration of the test compound of this invention, for determining its efficacy in inhibiting the binding of ^125I-NDP-α-MSH to its receptor.
(§4) Incubation was for 90 minutes at room temperature, after which the assay mixture was filtered and the membranes washed three times with ice cold buffer. The filter was dried and counted in a gamma counter for remaining radioactivity bound to the membranes. 100% specific binding was defined as the difference in radioactivity (cpm) bound to cell membranes in the absence and presence of 1 μM α-MSH. […] Each assay was conducted in triplicate and the actual mean values are described. The Ki (nM) of certain compounds of the invention were determined.

[8] = molecular target: T5, hMC5-R (Homo sapiens, UniProt P33032); assay: as above
T5 construct: expressed in transfected cells
Protocol: as §3, §4

[9] = molecular target: T6, hMC4-R (Homo sapiens, UniProt P32245); assay: as above
T6 construct: expressed in transfected cells
Protocol: as §3, §4

[10] = molecular target: T2, MC1-R (B-16 mouse melanoma cells); assay: as above
Protocol: as §3, §4

T2 sequence (Q01727 whole entry): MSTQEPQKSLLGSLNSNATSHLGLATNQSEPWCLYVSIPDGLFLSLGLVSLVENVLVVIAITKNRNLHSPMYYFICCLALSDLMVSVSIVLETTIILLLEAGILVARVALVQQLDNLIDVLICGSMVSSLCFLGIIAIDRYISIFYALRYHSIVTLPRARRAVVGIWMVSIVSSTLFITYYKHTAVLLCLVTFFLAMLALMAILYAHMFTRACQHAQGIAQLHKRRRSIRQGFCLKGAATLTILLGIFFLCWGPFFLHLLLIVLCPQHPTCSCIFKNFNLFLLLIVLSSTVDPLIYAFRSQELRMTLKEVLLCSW
T5 sequence (P33032 whole entry): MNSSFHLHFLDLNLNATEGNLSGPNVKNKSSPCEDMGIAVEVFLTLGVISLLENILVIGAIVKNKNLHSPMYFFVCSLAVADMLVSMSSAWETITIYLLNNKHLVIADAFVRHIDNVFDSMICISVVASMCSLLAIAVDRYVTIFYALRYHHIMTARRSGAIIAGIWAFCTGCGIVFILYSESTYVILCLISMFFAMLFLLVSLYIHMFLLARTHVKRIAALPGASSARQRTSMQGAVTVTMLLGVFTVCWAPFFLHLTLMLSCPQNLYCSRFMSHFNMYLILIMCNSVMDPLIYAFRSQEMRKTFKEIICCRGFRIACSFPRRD
T6 sequence (P32245 whole entry): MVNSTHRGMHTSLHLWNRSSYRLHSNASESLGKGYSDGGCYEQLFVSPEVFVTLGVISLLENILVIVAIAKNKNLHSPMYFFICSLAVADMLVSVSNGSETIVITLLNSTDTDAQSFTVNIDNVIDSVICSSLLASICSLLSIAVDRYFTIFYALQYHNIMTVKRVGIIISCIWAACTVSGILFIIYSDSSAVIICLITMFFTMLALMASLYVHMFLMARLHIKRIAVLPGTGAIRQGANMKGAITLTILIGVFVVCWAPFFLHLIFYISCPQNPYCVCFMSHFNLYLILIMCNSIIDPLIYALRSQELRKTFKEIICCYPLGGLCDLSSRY
T4 sequence (P41968 whole entry): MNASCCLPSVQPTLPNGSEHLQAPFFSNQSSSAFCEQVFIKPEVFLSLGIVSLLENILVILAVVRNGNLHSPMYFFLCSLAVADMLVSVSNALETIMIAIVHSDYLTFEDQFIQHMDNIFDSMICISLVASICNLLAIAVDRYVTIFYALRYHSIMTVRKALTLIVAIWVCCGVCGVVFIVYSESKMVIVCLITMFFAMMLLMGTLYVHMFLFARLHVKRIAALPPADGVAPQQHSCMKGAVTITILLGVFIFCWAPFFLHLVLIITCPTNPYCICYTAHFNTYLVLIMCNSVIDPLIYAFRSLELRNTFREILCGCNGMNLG
T3 sequence (P33032 whole entry): as the sequence (P33032 whole entry) above
T1 sequence (P32245 whole entry): as the sequence (P32245 whole entry) above

## C[C@@H]1CN(C(=O)[C@H](N)Cc2ccc(Cl)cc2)[C@@H](CCCNC(=N)N)CN1CCc1ccc2ccccc2c1 [Example 15, N-{3-[1-[2(R)-Amino-3-(4-chloro-phenyl)-propionyl]-5(R)-methyl-4-(2-naphthalen-2-yl-ethyl)-piperazin-2(S)-yl]-propyl}-guanidine]
[1]
  agonist/antagonist status as to MC4-R: agonist
[2]
  agonist/antagonist status as to MC1-R: agonist
[3]
  agonist/antagonist status as to MC5-R: agonist
[4]
  PE effect: no observed effect
[5]
  24 hour change in food intake: -9.6 g
[5]; 24 hour
  change in weight: -6.6 g
[6]
  24 hour change in food intake: -3.9 g
[6]; 24 hour
  change in weight: -3.9 g
[7]; 1 μM compound, average of triplicates, read-out: Inhibition at 1 μM MC3-R
  inhibition at 1 µM: 61%
[7]; read-out: Ki (nM) MC3-R
  Ki: 160 nM
[8]; 1 μM compound, average of triplicates, read-out: Inhibition at 1 μM MC5-R
  inhibition at 1 µM: 52%
[8]; read-out: Ki (nM) MC5-R
  Ki: 551 nM
[9]; 1 μM compound, average of triplicates, read-out: Inhibition at 1 μM MC4-R
  inhibition at 1 µM: 97%
[9]; read-out: Ki (nM) MC4-R
  Ki: 11 nM
[10]; 1 μM compound, average of triplicates, results less than 0% reported as 0%
  inhibition at 1 µM: 85%
[10]; read-out: Ki (nM) MC1-R
  Ki: 94 nM
